Assay results published in patent US5856318A (priority 1997, dated 1999).

Tests used:
NMDA receptor = conditions: C. Carter et al, J. Pharm Exp. Ther. 1988; cited from earlier work
sigma receptor = target: T1, sigma receptor (Cavia porcellus, UniProt Q60492); format: binding, guinea pig; conditions: read-out: Ki([3H](+)-Pent)
T1 construct: Crude P2 membrane fractions were prepared from frozen; tissue Pel-Freeze, Rogers, Ark; (frozen guinea pig brains); host or cells: guinea pig brain minus cerebella, crude synaptosomal (P2) membranes
T1 sequence (Q60492 whole entry): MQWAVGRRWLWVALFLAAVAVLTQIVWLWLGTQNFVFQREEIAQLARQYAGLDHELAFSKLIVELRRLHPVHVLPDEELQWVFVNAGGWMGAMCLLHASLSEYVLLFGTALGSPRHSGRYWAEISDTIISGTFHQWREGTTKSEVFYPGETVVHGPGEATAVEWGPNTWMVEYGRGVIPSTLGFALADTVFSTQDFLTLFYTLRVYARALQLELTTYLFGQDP

Compound	NMDA receptor antagonism (NMDA receptor)	Ki (sigma receptor) [nM]
1-(4-chlorophenyl)-2-[1-(4-fluorophenyl)-piperidinyl]ethanol	non-competitive NMDA receptor antagonists	
CC(C(O)c1ccc(O)cc1)N1CCC(Cc2ccccc2)CC1 (stereo not drawn) [ifenprodil]	non-competitive NMDA receptor antagonists	
Clc1ccc(CCN2CCCC(N3CCCC3)C2)cc1Cl (stereo not drawn) [Compound No. 1, 3-(1-Pyrrolidinyl)-1-[2-(3,4-dichlorophenyl)ethyl]piperidine]		3.56 ± 1.56
